What all share (format): functional
The subject of test [1] is Mycobacterium tuberculosis. In words: Antitubercular activity against isoniazid, rifampicin, fluoroquinolones-resistant Mycobacterium tuberculosis assessed as inhibition of bacterial growth incubated for 6 days by MABA assay. Particulars: 144 h, time 6 day.
Test [2] concerns Mycobacterium tuberculosis. The experiment in a line: Antitubercular activity against INH, SM, RFP, EMB, RBT, PAS, OLFX-resistant Mycobacterium tuberculosis 13946 assessed as inhibition of bacterial growth.
Test [3] relates to Mycobacterium tuberculosis. In words: Antitubercular activity against INH, SM, RFP, EMB, PAS, Prothionamide 1321, Capreomycin-resistant Mycobacterium tuberculosis 14862 assessed as inhibition of bacterial growth.

SMILES strings stand for the structures. ≈ marks a conversion by molar mass, not a printed value.

These results are taken from ChEMBL document CHEMBL4765252, “Design, synthesis, and biological evaluation of novel 4H-chromen-4-one derivatives as antituberculosis agents against multidrug-resistant tuberculosis” (Eur J Med Chem, 2020).

For orientation: MIC means the smallest concentration in the dilution series that meets the test's criterion for growth inhibition.

In the case of `CCOC(=O)c1c(NC(=O)c2c(F)c(F)c(F)c(F)c2F)sc2c1CCN(CC)C2`, in test [1], the MIC worked out at 0.2 µM (≈ 0.0897 µg/mL).
On to `O=c1cc(-c2ccc(O)cc2)oc2ccc(O)c(CN3CCCC3)c12`, for which the MIC worked out at 3.81 mg/L (≈ 11.3 µM) in test [2] and 3.82 mg/L (≈ 11.3 µM) in test [3].
For `O=c1cc(-c2ccc(O)cc2)oc2ccc(O)c(CN3CCC3)c12`, in that order: 1.76 mg/L (≈ 5.43 µM) and 1.64 mg/L (≈ 5.08 µM).
Turning to `NNC(=O)c1ccncc1` [ISONIAZID], the MIC in test [2] was 2.38 mg/L (≈ 17.3 µM); in test [3] it was more than 10 mg/L.
Consider `CO[C@H]1/C=C/O[C@@]2(C)Oc3c(C)c(O)c4c(O)c(c(/C=N/N5CCN(C)CC5)c(O)c4c3C2=O)NC(=O)/C(C)=C\C=C\[C@H](C)[C@H](O)[C@@H](C)[C@@H](O)[C@@H](C)[C@H](OC(C)=O)[C@@H]1C` [RIFAMPIN], for which the MIC in test [2] and in test [3] was more than 10 mg/L each time.
